Test results from US9107967B2, “Apparatus and method for treating stored crops infected with toxins” (Pureline Treatment Systems, LLC, priority 2010, dated 2015).

Key:
[1] = Application of aqueous ClO2 solution to wheat during tempering or sweating; conditions: 75 ppm aqueous ClO2 solution applied for 12 hours during tempering; approximately 12 ppm prior to application
Description: During processing of certain grains, such as wheat, a sweating or tempering step is used. During this step, the grain is contacted with water. The grain can be contacted with water for various amounts of time. In some examples the contacting occurs over night, in other examples the contacting occurs from 12-24 hours. This can be used as an opportunity the introduce an aqueous ClO2 solution.
Applicants conducted a study where a 75 ppm aqueous ClO2 solution was applied to wheat during tempering or sweating. The aqueous ClO2 solution was applied to the wheat for 12 hours.

[2] = Treatment of mycotoxin-infected corn kernels with aqueous ClO2 solution, then testing ground corn for mycotoxins; conditions: corn kernels exposed to 400 ppm aqueous ClO2 solution for two hours; untreated corn 9 ppm
Text: Applicants conducted a study in order to determine the effects of ClO2 on toxins. Applicants obtained corn infected with mycotoxins and mycotoxin-producing microorganisms. Applicants exposed the corn kernels to an aqueous ClO2 solution with a concentration of 400 ppm for two hours. Applicants drained the aqueous ClO2 solution from the corn. Applicants ground the corn and tested for the presence of mycotoxins. Applicants also ground untreated corn from the batch and tested that corn for the presence of mycotoxins.

[3] = Treatment of mash from mycotoxin-infected ground corn with heated aqueous ClO2 solution, then testing mash for mycotoxins; conditions: mash exposed to 200 ppm aqueous ClO2 solution heated to 185° F for two hours; untreated 12 ppm
Description: Applicants conducted another study in order to determine the effects of ClO2 on toxins. Applicants obtained corn infected with mycotoxins and mycotoxin-producing microorganisms. Applicants ground the corn kernels and mixed them with water to form a mash, similar to what is used in various fermentation plants. Applicants heated an aqueous ClO2 solution with a concentration of 200 ppm to 185° F. Applicants then exposed the mash to the heated aqueous chlorine dioxide solution for two hours. Applicants drained the aqueous ClO2 solution from the mash. Applicants tested the mash for the presence of mycotoxins. Applicants also tested untreated mash from the same batch for the presence of mycotoxins.

SMILES: [O][Cl+][O-] [ClO2, chlorine dioxide]
- concentration of Vomitoxin in wheat after application [1]: approximately 1 ppm
- concentration of Vomitoxin in treated corn [2]: 2.3 ppm
- concentration of Vomitoxin in treated corn (mash) [3]: 0.5 ppm
